Test results from patent publication US10973794B2, “Dental composition and use” (CALSCIENCE INTERNATIONAL LTD., priority 2015, dated 2021).

Experiments:
[1] = test system: XRCC5; assay: Taqman Real Time-PCR expression of XRCC5 in HFFs with and without H2O2 stress-induced premature senescence; format: cell-based, human; conditions: with and without 150 μM H2O2, FIG. 4
Description: (§1) The following results relate to the analysis of senescence tests on 1,5-Dicaffeoylquinic Acid (1,5-DCQA). FIG. 8 relates to 1,4-DCQA. The experiments were conducted using human foreskin fibroblasts (HFFs).
(§2) In the following experiments, HFFs were challenged for a period of two hours with 150 μM hydrogen peroxide (H2O2), to stimulate premature senescence in the presence and absence of 1,5-DCQA (1/1000 dilution), and subsequently assayed by Taqman Real Time-PCR for the expression of key senescence associated genes.
XRCC5 is a double strand break repair protein.
(§3) The results shown in Table 2 and FIGS. 2 to 7 were generated using the polymerase chain reaction (PCR), wherein the dCt and ddCT values are results used in statistical analysis. The abbreviation dCt relates to “delta cycle threshold” and the abbreviation ddCt relates to “delta delta cycle threshold”. In these experiments, HPRT (hypoxanthine phosphoribosyltransferase, a protein from the HPRT-1 gene) was used as a control.

[2] = test system: p16; assay: Taqman Real Time-PCR expression of p16 in HFFs with and without H2O2 stress-induced premature senescence; format: cell-based, human
Description: as §1, §2, §3

[3] = test system: Sirtuin 3 (SIRT3); assay: Taqman Real Time-PCR expression of Sirtuin 3 in HFFs with and without H2O2 stress-induced premature senescence; format: cell-based, human; conditions: following oxidant challenge, FIG. 7
Description: as §1, §2
(§4) These genes are involved in cell cycle regulation and mitochondrial stress responses. Challenge with a near lethal level of oxidant stress typically induces an increase in SIRT2 and decrease in SIRT3 expression. […] This is indicative of each having a potential for stimulating cell proliferation in the absence of oxidant challenge.
as §3

[4] = test system: Sirtuin 2 (SIRT2); assay: Taqman Real Time-PCR expression of Sirtuin 2 in HFFs with and without H2O2 stress-induced premature senescence; format: cell-based, human; conditions: without stress, FIG. 6
Description: as §1, §2, §4, §3

[5] = test system: human foreskin fibroblasts (HFFs); assay: WST-1 Cell Proliferation Assay; format: cell-based
Description: as §1
The WST-1 Cell Proliferation Assay provides a sensitive and accurate assay for cell proliferation and cytotoxicity (cell viability). The WST assay is based on the cleavage of the tetrazolium salt WST-1 to formazan by cellular mitochondrial dehydrogenases. Expansion in the number of viable cells results in an increase in the overall activity of the mitochondrial dehydrogenases in the sample. The augmentation in enzyme activity results in an increase in the amount of formazan dye formed. The formazan dye produced by viable cells was quantified by a multi-well spectrophotometer by measuring the absorbance of the dye solution at 440 nm. The compound provided was tested in the WST assay over a range of dilutions. […] The results of the assay show the standard deviation (SD) for 1,5-DCQA and the control, and the mean values for 1,5-DCQA and the control.

O=C(/C=C/c1ccc(O)c(O)c1)O[C@@H]1C[C@](OC(=O)/C=C/c2ccc(O)c(O)c2)(C(=O)O)C[C@@H](O)[C@H]1O [1,5-DCQA, 1,5-Dicaffeoylquinic Acid]
expression of XRCC5 in comparison with the control data set [1]: substantially unaltered expression | effect on p16 expression following oxidant challenge ([2]; 150 μM H2O2, FIG. 2): excellent protection from oxidant challenge | effect on p16 expression in untreated cells ([2]; no H2O2, FIG. 2): no stress effect on untreated cells | change in SIRT3 expression [3]: increase in SIRT3 expression | change in SIRT2 expression [4]: significant decrease in SIRT2 expression | effect on cell viability (WST assay) ([5]; 1/1000 and 2/1000 dilutions): beneficial to cell viability | Mean (WST-1 assay, absorbance at 440 nm) ([5]; dilution 1/1000): 0.916 | Mean (WST-1 assay, absorbance at 440 nm) ([5]; dilution 2/1000): 0.868 | Mean (WST-1 assay, absorbance at 440 nm) ([5]; dilution 3/1000): 0.717 | Mean (WST-1 assay, absorbance at 440 nm) ([5]; dilution 4/1000): 0.363 | Mean (WST-1 assay, absorbance at 440 nm) ([5]; dilution 5/1000): 0.178 | Mean (WST-1 assay, absorbance at 440 nm) ([5]; dilution 6/1000): 0.300 | Mean (WST-1 assay, absorbance at 440 nm) ([5]; dilution 7/1000): 0.419 | Mean (WST-1 assay, absorbance at 440 nm) ([5]; dilution 8/1000): 0.196 | Mean (WST-1 assay, absorbance at 440 nm) ([5]; dilution 9/1000): 0.115 | Mean (WST-1 assay, absorbance at 440 nm) ([5]; dilution 10/1000): 0.069
